From publication PMC7451656, “In vitro and in vivo growth inhibitory activities of cryptolepine hydrate against several Babesia species and Theileria equi” (PLoS Neglected Tropical Diseases, 2020)

How the values were obtained:
[1] = Hematology profiles, body weight and adverse effects of treated B. microti-infected mice; assay type: in vivo; conditions: CRY administered i.p.
Protocol: The promising effect of CRY in vitro encouraged us to evaluate its in vivo effects against B. microti in mice. The assay was conducted in accordance with the previously described protocol. In two separate trials, 35 female 8-week-old BALB/c mice, housed under a pathogen-free environment with controlled humidity, temperature (22°C) and a 12 h light/ dark cycle were caged in seven groups, each group consisting of five mice. Six groups were i.p. injected with 0.5 ml of inoculum (1×10^7 B. microti iRBCs), while the seventh group was left uninfected and untreated to act as a negative control. When the average parasitemia in all infected mice reached approximately 1%, the 5-day drug treatment was initiated. […] Parasitemia and hematology profiles (RBCs, hemoglobin (HGB), and HCT) were monitored every 2 and 4 days by microscopic examination and hematology analyzer (Celltac α MEK-6450, Nihon Kohden Corporation, Tokyo, Japan), respectively. […]
The IC50 values of CRY, DA, CF, and AQ were determined using the nonlinear regression curve fit in GraphPad Prism (GraphPad Software Inc., San Diego, CA, USA). Combination index (CI) values for the drug combination were calculated using CompuSyn software, and the degree of synergism was determined as the weighted average of CI values using a formula [(1 x IC50) + (2 x IC75) + (3 x IC90) + (4 x IC95)]/10 [30]. […]

[2] = test system: P. berghei; set-up: method as in PMID 11543688; conditions: no apparent toxicity; cited from earlier work
[3] = test system: human foreskin fibroblast (HFF) cell line; assay: cells; assay type: cell-based; conditions: for EC50: Homo sapiens, cell viability, HFF, 24 h, CCK-8
Protocol: (§1) Madin–Darby bovine kidney (MDBK) (ECACC), mouse embryonic fibroblast (NIH/3T3 ATCC CRL-1658) and Human foreskin fibroblast (HFF HFF-1 ATCC SCRC-1041) cell lines were recovered from -80°C stock and cultured continuously in our laboratory at 37°C in a humidified incubator with 5% CO2. In 75 cm^2 culture flasks, NIH/3T3 and HFF cell lines were maintained with Dulbecco’s Modified Eagle’s Medium (DMEM; Gibco, Grand Island, NY, USA), while the MDBK cell line was maintained with Minimum Essential Medium Eagle (MEM; Gibco). Ten percent fetal bovine serum, 1% glutamine, and 0.5% penicillin/streptomycin (Gibco) were added to all media and the cells were stained with 4, 6-diamidino-2-phenylindole dihydrochloride (DAPI; Sigma-Aldrich, St. Louis, MO, USA) to ensure that they were free from mycoplasma contamination. Afterward, the cells were washing twice with Dulbecco’s phosphate-buffered saline and TrypLE Express (Gibco) was used for cell detachment from the culture flask. Finally, Neubauer improved C-Chip (NanoEntek Inc., Seoul, Korea) was used for counting the viable cells after staining with 0.4% trypan blue solution.
(§2) The cytotoxicity assay was performed in accordance with the previously described protocol. Briefly, the assay was carried out using 96-well plates at 37 °C in a humidified incubator with 5% CO2, 100 μl of cells at a density of 5 x 10^4 cells/ml was seeded per well and allowed to attach to the plate for 24 h. Ten microliters of twofold drug dilutions was added to each well to a final concentration of 0.781 to 100 μM in triplicate and incubated for another 24 h. Ten μl of Cell Counting Kits-8 (CCK-8; Dojindo, Japan) was added to each well and incubated for another 3 h, and the absorbance was measured at 450 nm using a microplate reader.

[4] = test system: Madin–Darby bovine kidney (MDBK) cell line; assay: cells; assay type: cell-based; conditions: for EC50: Bos taurus, MDBK, 24 h, cell viability, CCK-8
Protocol: as §1, §2

[5] = test system: mouse embryonic fibroblast (NIH/3T3) cell line; assay: cells; assay type: cell-based; conditions: for EC50: Mus musculus, NIH3T3, cell viability, NIH/3T3, 24 h, CCK-8
Protocol: as §1, §2

[6] = test system: equine RBCs / B. caballi; assay: Growth of B. caballi with CRY-treated horse RBCs; assay type: cell-based, Babesia caballi; conditions: equine RBCs pre-incubated with 1 and 10 μM CRY for 3 and 6 h, 4 days
Protocol: (§3) To investigate the hemolytic effect of CRY on host (bovine or equine) RBCs, bovine and equine RBCs were incubated with 1 and 10 μM of CRY for 3 and 6 h. The RBCs were washed thrice with phosphate-buffered saline (PBS) and mixed with B. divergens and B. caballi infected RBCs (iRBCs, recovered from −80 °C stock at our laboratory) harvested with a parasitemia of 8% and 3%, respectively and adjusted to 1% parasitemia with fresh RBCs. In a 24-well plate, 100 μl of iRBCs was added to 900 μl of complete medium and the parasite growth was monitored daily by microscopic examination of a Giemsa-stained blood smear for 4 days.

[7] = test system: bovine RBCs / B. divergens; assay: Growth of B. divergens with CRY-treated bovine RBCs; assay type: cell-based, Babesia divergens; conditions: bovine RBCs pre-incubated with 1 and 10 μM CRY for 3 and 6 h, 4 days
Protocol: as §3

Row | Compound | adverse effects in mice [1] | suppression of P. berghei parasitemia in mice [2] [%] | inhibition of cell line at 100 μM [3] | EC50 [3] [µM] | EC50 [4] [µM] | EC50 [5] [µM] | multiplication of B. caballi, CRY-treated RBCs versus normal RBCs [6] | multiplication of B. divergens, CRY-treated RBCs versus normal RBCs [7] | inhibition of cell line at 100 μM [4] | inhibition of cell line at 100 μM [5]
1 | Cn1c2c3ccccc3nc-2cc2ccccc21 [CRY, Cryptolepine hydrate] | no apparent adverse effects | 80.5 | did not show any inhibition | > 100 | 86.7 ± 4.43 | 95.3 ± 2.7 | did not significantly differ | did not significantly differ | – | –
2 | O=C1C(O)=C([C@H]2CC[C@H](c3ccc(Cl)cc3)CC2)C(=O)c2ccccc21 [AQ, atovaquone] | – | – | did not show any inhibition | > 100 | > 100 | > 100 | – | – | did not show any inhibition | did not show any inhibition
